Source: patent US20070203209A1, “Useful indole compounds” (priority 2005, published 2007)

Tested on: ovalbumin-induced eosinophil induction (eosinophils in BAL fluid)
Test: Rat Ovalbumin Model (ovalbumin-induced airway cell proliferation and inflammation)
Assay type: in vivo, Brown Norway rats
Conditions: ability to prevent ovalbumin-induced eosinophil induction (percentage of eosinophils in BAL fluid); test compounds dosed orally at 5 mg/kg twice daily, days 5-12; samples 24 hours after last OVA challenge
Description: Complete protocol details can be found in Eynott et al. (2003. J. Pharmacol. Ther. 304:22-29). Briefly, Brown Norway rats are sensitized on days 1, 2, and 3 with intraperitoneal (i.p.) injections of lmg ovalbumin (OVA) and 100 mg Al(OH)3 in 1 mL 0.9% NaCl saline. They are then exposed to either 0.9% NaCl saline or 1% OVA aerosol every 3rd day (days 6, 9, & 12) for 30 minutes. 2 mg/kg dexamethasone is used as a positive control and is dosed i.p. once a day on days 4, 5, 6, 9, & 12. Vehicle (15% β-cyclodextrins in DMSO) and test compounds are dosed orally twice a day on days 5-12. On challenge days, all animals are treated 1 hour prior to OVA allergen exposure and, if required for twice a day treatment, ˜4-8 hours after allergen exposure. Samples are collected 24 hours after the last OVA challenge. For sample collection, rats are anaesthetized by administration of 10 mg/kg xylazine and 60 mg/kg ketamine intraperitoneally. Once the rats were fully anesthetized, blood is collected for serum via the retro-orbital route. The rats are subsequently perfused by injecting 30 mL PBS through the right ventricle of the heart after the abdominal aorta is severed. A tracheostomy is then performed and bronchoalveolar lavage fluid (BAL) is collected through five 5 mL rinses using Hank's Balanced Salt Solution, which was kept on ice. Airway inflammatory cell accumulation and proliferation of cells are measured through the BAL fluid collection and subsequent cell counts. Cytospin slides are prepared and eosinophil % are determined by counting ˜400 cells per slide. The test compounds are dosed at 5 mg/kg twice daily. Activity is scored based on the ability of the test compound to prevent ovalbumin-induced eosinophil induction (as determined by percentage of eosinophils in BAL fluid).

Compound | Activity (P < 0.05)
Cc1c(CC(=O)O)c2cc(Cl)c(Cl)cc2n1Cc1cccc(OC(F)(F)F)c1 [{5,6-dichloro-2-methyl-1-[3-(trifluoromethoxy)benzyl]-1H-indol-3-yl}acetic acid] | no
COc1cc2c(CC(=O)O)c(C)n(Cc3nc4ccccc4s3)c2cc1Cl [[1-(1,3-benzothiazol-2-ylmethyl)-6-chloro-5-methoxy-2-methyl-1H-indol-3-yl]acetic acid] | no
COc1cc2c(CC(=O)O)c(C)n(Cc3cc(Cl)cc(Cl)c3)c2cc1Cl [[6-chloro-1-(3,5-dichlorobenzyl)-5-methoxy-2-methyl-1H-indol-3-yl]acetic acid] | no
Cc1c(CC(=O)O)c2cc(F)c(Cl)cc2n1Cc1nc2ccccc2s1 [[1-(1,3-benzothiazol-2-ylmethyl)-6-chloro-5-fluoro-2-methyl-1H-indol-3-yl]acetic acid] | no
Cc1c(CC(=O)O)c2cc(F)c(Cl)cc2n1Cc1cccc(OC(F)(F)F)c1 [{6-chloro-5-fluoro-2-methyl-1-[3-(trifluoromethoxy)benzyl]-1H-indol-3-yl}acetic acid] | no
COc1cc2c(CC(=O)O)c(C)n(Cc3cccc(Br)c3)c2cc1Cl [[1-(3-bromobenzyl)-6-chloro-5-methoxy-2-methyl-1H-indol-3-yl]acetic acid] | no
Cc1cc2c(CC(=O)O)c(C)n(Cc3nc4ccccc4s3)c2cc1Cl [[1-(1,3-benzothiazol-2-ylmethyl)-6-chloro-2,5-dimethyl-1H-indol-3-yl]acetic acid] | no
COc1cc2c(CC(=O)O)c(C)n(Cc3cccc(C(F)(F)F)c3)c2cc1Cl [{6-chloro-5-methoxy-2-methyl-1-[3-(trifluoromethyl)benzyl]-1H-indol-3-yl}acetic acid] | no
Cc1cc2c(CC(=O)O)c(C)n(Cc3cccc(C(F)(F)F)c3)c2cc1Cl [{6-chloro-2,5-dimethyl-1-[3-(trifluoromethyl)benzyl]-1H-indol-3-yl}acetic acid] | no
Cc1c(CC(=O)O)c2c(Cl)cc(Cl)cc2n1Cc1cccc(OC(F)(F)F)c1 [{4,6-dichloro-2-methyl-1-[3-(trifluoromethoxy)benzyl]-1H-indol-3-yl}acetic acid] | no
COc1cc2c(CC(=O)O)c(C)n(Cc3cccc(OC(F)(F)F)c3)c2cc1Cl [{6-chloro-5-methoxy-2-methyl-1-[3-(trifluoromethoxy)benzyl]-1H-indol-3-yl}acetic acid] | yes
Cc1cc2c(CC(=O)O)c(C)n(Cc3cccc(OC(F)(F)F)c3)c2cc1Cl [{6-chloro-2,5-dimethyl-1-[3-(trifluoromethoxy)benzyl]-1H-indol-3-yl}acetic acid] | yes
COc1cc2c(CC(=O)O)c(C)n(Cc3cccc(Cl)c3)c2cc1Cl [[6-chloro-1-(3-chlorobenzyl)-5-methoxy-2-methyl-1H-indol-3-yl]acetic acid] | no
